Measured values: ChEMBL document CHEMBL1142079, “Quinoline derivative MC1626, a putative GCN5 histone acetyltransferase (HAT) inhibitor, exhibits HAT-independent activity against Toxoplasma gondii” (2007)
The source made the active and inactive calls. The calls are words filed in the database; no cut-off is given here.

Columns and labels:
Toxoplasma gondii [1] = assay: Decrease in acetylated histone H3 levels in Toxoplasma gondii tachyzoites after 3 days by immunoblotting; assay type: functional, organism-based
Toxoplasma gondii [2] = assay: Effect on apicoplasts in Toxoplasma gondii at 200 uM by DAPI staining relative to DMSO; assay type: functional
[3] = target: Histone acetyltransferase GCN5 (Saccharomyces cerevisiae S288c) (UniProt Q03330); assay: Inhibition of Saccharomyces cerevisiae recombinant GCN5 assessed as histone H3 acetylation
Toxoplasma gondii [4] = assay: Inhibition of Toxoplasma gondii in human foreskin fibroblasts at 100 uM relative to DMSO; assay type: functional
Toxoplasma gondii [5] = assay: Inhibition of Toxoplasma gondii in human foreskin fibroblasts relative to DMSO; assay type: functional, organism-based

Histone acetyltransferase GCN5 (Saccharomyces cerevisiae S288c), sequence (Q03330 whole entry): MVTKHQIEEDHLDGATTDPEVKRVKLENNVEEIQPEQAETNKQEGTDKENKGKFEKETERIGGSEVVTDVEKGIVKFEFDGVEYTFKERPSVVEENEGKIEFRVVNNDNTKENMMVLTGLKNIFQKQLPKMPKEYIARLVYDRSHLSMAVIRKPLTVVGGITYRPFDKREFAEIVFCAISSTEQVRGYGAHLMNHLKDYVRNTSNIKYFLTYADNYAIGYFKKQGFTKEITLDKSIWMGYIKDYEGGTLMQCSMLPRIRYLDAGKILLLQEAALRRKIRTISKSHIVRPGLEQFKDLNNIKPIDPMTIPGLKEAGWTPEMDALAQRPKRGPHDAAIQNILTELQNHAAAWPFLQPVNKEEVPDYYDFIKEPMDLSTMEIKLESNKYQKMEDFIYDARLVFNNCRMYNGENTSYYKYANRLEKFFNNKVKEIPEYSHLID

| Activity [3] | Compound | Activity (Toxoplasma gondii [1]) | Activity (Toxoplasma gondii [2]) [%] | inhibition at 100 µM (Toxoplasma gondii [4]) [%] | Activity (Toxoplasma gondii [5]) |
| --- | --- | --- | --- | --- | --- |
| inactive | CCOC(=O)c1cc2ccccc2nc1C | inactive | 52 | 50 | Dose-dependent effect |
| Active | C=CC/C=C\C/C=C\CCCCCCCc1cccc(O)c1C(=O)O | – | – | – | – |
